Assay results taken from patent publication US6602873B2, “Angiogenesis inhibiting thiadiazolyl pyridazine derivatives” (Janssen Pharamaceutica, N.V., priority 1997, dated 2003).
Where a name gives a salt, the structure may show the parent alone.

System: microvessel formation in rat aortic rings
Test: rat aortic ring model of angiogenesis (inhibition of microvessel formation)
Assay type: cell-based
Settings: 192 h, microvessel area after eight days in culture vs vehicle-treated control rings
Protocol: Angiogenesis inhibitory activity was measured in vitro using the rat aortic ring model of angiogenesis as described by Nicosia, R. F. and Ottinetti in “Laboratory Investigation”, vol. 63, p. 115, 1990. The ability of compounds to inhibit microvessel formation was compared to vehicle-treated control rings. Quantitation (microvessel area) following eight days in culture was performed using an image analysis system, consisting of a light microscope, a CCD camera and an automated, custom-designed image analysis program as described by Nissanov, J., Tuman, R. W., Gruver, L. M., and Fortunato, J. M. in “Laboratory Investigation”, vol 73 (#5), p. 734, 1995. Compounds were tested at several concentrations for determination of inhibitory potency (IC50's).

Q: How did the IC50 turn out when `Cc1nsc(-c2ccc(N(C)CCCCOc3cccc(C(F)(F)F)c3)nn2)n1` [Compound 52, N-methyl-6-(3-methyl-1,2,4-thiadiazol-5-yl)-N-[4-[3-(trifluoromethyl)phenoxy]butyl]-3-pyridazinamine] was run?
A: Its IC50 is 5.56 nM.

Q: `Cc1nsc(-c2ccc(N(C)CCCCOc3ccc(C(F)(F)F)cc3)nn2)n1` [Compound 55, N-methyl-6-(3-methyl-1,2,4-thiadiazol-5-yl)-N-[4-[4-(tri-fluoromethyl)phenoxy]butyl]-3-pyridazinamine monohydrochloride] was tested. Which IC50 did it give?
A: The IC50 was 3.62 nM.

Q: `Cc1nsc(-c2ccc(SCCCCOc3cccc(C(F)(F)F)c3)nn2)n1` [Compound 94, 3-(3-methyl-1,2,4-thiadiazol-5-yl)-6-[[4-[3-(trifluoromethyl)phenoxy]butyl]thio]pyridazine] was tested. Which IC50 did it give?
A: The IC50 was 4.71 nM.

Same assay, conditions: microvessel area after eight days in culture vs vehicle-treated control rings

Q: Which IC50 does the source give for `Cc1nsc(-c2ccc(NCCCCNc3ccccc3)nn2)n1` [Compound 3] here?
A: The IC50 was 45.7 nM.

Q: Which IC50 does the source give for `Cc1nsc(-c2ccc(NCCCCCNc3ccccc3)nn2)n1` [Compound 4] here?
A: The IC50 was 21.2 nM.

Q: For `Cc1nsc(-c2ccc(NCCCCCCNc3ccccc3)nn2)n1` [Compound 5], which IC50 is on record?
A: Its IC50 is 16.4 nM.

Q: Which IC50 does the source give for `Cc1nsc(-c2ccc(NCCNc3cccc(C(F)(F)F)c3)nn2)n1` [Compound 6] here?
A: The IC50 was 0.428 nM.

Q: For `Cc1nsc(-c2ccc(NCCCNc3cccc(C(F)(F)F)c3)nn2)n1` [Compound 7], which IC50 is on record?
A: Its IC50 is 45.4 nM.

Q: `Cc1nsc(-c2ccc(NCCCCCCNc3cccc(C(F)(F)F)c3)nn2)n1` [Compound 8] was tested. Which IC50 did it give?
A: The IC50 was 8.53 nM.

Q: For `Cc1nsc(-c2ccc(N(C)CCNc3ccccc3)nn2)n1` [Compound 9], which IC50 is on record?
A: The IC50 was 17.9 nM.

Q: Which IC50 does the source give for `Cc1nsc(-c2ccc(N(C)CCN(C)c3ccccc3)nn2)n1` [Compound 10] here?
A: Its IC50 is 15.6 nM.

Q: For `FC(F)(F)c1cccc(OCCCCNc2ccc(-c3ncns3)nn2)c1` [Compound 11], which IC50 is on record?
A: The IC50 was 90.8 nM.

Q: How did the IC50 turn out when `Cc1nsc(-c2ccc(NCCCCOc3ccc(Br)cc3)nn2)n1` [Compound 14] was run?
A: Its IC50 is 31.2 nM.

Q: `Cc1nsc(-c2ccc(NCCCCOc3ccccc3Cl)nn2)n1` [Compound 15] was tested. Which IC50 did it give?
A: The IC50 was 1.34 nM.

Q: For `Cc1nsc(-c2ccc(NCCCCOc3ccc(Cl)cc3)nn2)n1` [Compound 16], which IC50 is on record?
A: The IC50 was 15.8 nM.

Q: `Cc1nsc(-c2ccc(NCCCCOc3ccc(Cl)c(Cl)c3)nn2)n1` [Compound 17] was tested. Which IC50 did it give?
A: The IC50 was 12.8 nM.

Q: Which IC50 does the source give for `Cc1nsc(-c2ccc(NCCCCOc3cccc(F)c3)nn2)n1` [Compound 20] here?
A: The IC50 was 8.15 nM.

Q: With `Cc1nsc(-c2ccc(NCCCCOc3ccc(F)cc3)nn2)n1` [Compound 21] as the compound, how does the IC50 read?
A: The IC50 was 48.4 nM.

Q: `Cc1nsc(-c2ccc(NCCCCOc3ccc(F)cc3F)nn2)n1` [Compound 22] was tested. Which IC50 did it give?
A: The IC50 was 72.6 nM.

Q: How did the IC50 turn out when `Cc1nsc(-c2ccc(NCCOc3cccc(C(F)(F)F)c3)nn2)n1` [Compound 24] was run?
A: Its IC50 is 1.33 nM.

Q: For `Cc1nsc(-c2ccc(NCCCOc3cccc(C(F)(F)F)c3)nn2)n1` [Compound 25], which IC50 is on record?
A: Its IC50 is 40.4 nM.

Q: How did the IC50 turn out when `Cc1nsc(-c2ccc(NCCCCOc3cccc(C(F)(F)F)c3)nn2)n1` [Compound 26] was run?
A: Its IC50 is 3.97 nM.

Q: Which IC50 does the source give for `Cc1nsc(-c2ccc(NCCCCCOc3cccc(C(F)(F)F)c3)nn2)n1` [Compound 27] here?
A: The IC50 was 0.622 nM.

Q: `Cc1nsc(-c2ccc(NCCCCCCOc3cccc(C(F)(F)F)c3)nn2)n1` [Compound 28] was tested. Which IC50 did it give?
A: Its IC50 is 1.76 nM.

Q: For `Cc1ccc(C(C)C)c(OCCCCNc2ccc(-c3nc(C)ns3)nn2)c1` [Compound 29], which IC50 is on record?
A: The IC50 was 24.8 nM.

Q: For `COc1cccc(OCCCCNc2ccc(-c3nc(C)ns3)nn2)c1` [Compound 30], which IC50 is on record?
A: Its IC50 is 6.31 nM.

Q: Which IC50 does the source give for `Cc1nsc(-c2ccc(N(C)CCCCOc3ccccc3)nn2)n1` [Compound 35] here?
A: Its IC50 is 29.4 nM.

Q: Which IC50 does the source give for `Cc1nsc(-c2ccc(N(C)CCCCOc3ccc(Br)cc3)nn2)n1` [Compound 36] here?
A: Its IC50 is 5.3 nM.

Q: With `Cc1nsc(-c2ccc(N(C)CCCCOc3ccccc3Cl)nn2)n1` [Compound 37] as the compound, how does the IC50 read?
A: Its IC50 is 1.32 nM.

Q: `Cc1nsc(-c2ccc(N(C)CCCCOc3ccc(Cl)cc3)nn2)n1` [Compound 38] was tested. Which IC50 did it give?
A: The IC50 was 37.2 nM.

Q: For `Cc1nsc(-c2ccc(N(C)CCCCOc3ccc(Cl)c(Cl)c3)nn2)n1` [Compound 39], which IC50 is on record?
A: Its IC50 is 17.1 nM.

Q: With `COc1ccc(OCCCCN(C)c2ccc(-c3nc(C)ns3)nn2)c(Cl)c1` [Compound 40] as the compound, how does the IC50 read?
A: The IC50 was 11.5 nM.

Q: Which IC50 does the source give for `Cc1nsc(-c2ccc(N(C)CCCCOc3ccccc3F)nn2)n1` [Compound 41] here?
A: The IC50 was 2.56 nM.

Q: Which IC50 does the source give for `Cc1nsc(-c2ccc(N(C)CCCCOc3cccc(F)c3)nn2)n1` [Compound 42] here?
A: The IC50 was 42.2 nM.

Q: `Cc1nsc(-c2ccc(N(C)CCCCOc3ccc(F)cc3)nn2)n1` [Compound 43] was tested. Which IC50 did it give?
A: The IC50 was 2.78 nM.

Q: With `Cc1nsc(-c2ccc(N(C)CCCCOc3ccc(F)cc3F)nn2)n1` [Compound 44] as the compound, how does the IC50 read?
A: The IC50 was 15.2 nM.

Q: For `Cc1nsc(-c2ccc(N(C)CCCCOc3ccc(F)c(F)c3)nn2)n1` [Compound 45], which IC50 is on record?
A: The IC50 was 2 nM.

Q: With `Cc1nsc(-c2ccc(N(C)CCCCOc3cccc(C(F)(F)F)c3F)nn2)n1` [Compound 46] as the compound, how does the IC50 read?
A: The IC50 was 1.46 nM.

Q: Which IC50 does the source give for `Cc1nsc(-c2ccc(N(C)CCCCOc3cc(C(F)(F)F)ccc3F)nn2)n1` [Compound 47] here?
A: Its IC50 is 12.5 nM.

Q: `Cc1nsc(-c2ccc(N(C)CCCCOc3cc(F)cc(C(F)(F)F)c3)nn2)n1` [Compound 48] was tested. Which IC50 did it give?
A: Its IC50 is 1.85 nM.

Q: With `Cc1nsc(-c2ccc(N(C)CCCCOc3ccccc3C(F)(F)F)nn2)n1` [Compound 49] as the compound, how does the IC50 read?
A: Its IC50 is 0.312 nM.

Q: For `Cc1nsc(-c2ccc(N(C)CCOc3cccc(C(F)(F)F)c3)nn2)n1` [Compound 50], which IC50 is on record?
A: Its IC50 is 0.83 nM.

Q: With `Cc1nsc(-c2ccc(N(C)CCCOc3cccc(C(F)(F)F)c3)nn2)n1` [Compound 51] as the compound, how does the IC50 read?
A: Its IC50 is 9.38 nM.

Q: How did the IC50 turn out when `Cc1nsc(-c2ccc(N(C)CCCCOc3cc(C(F)(F)F)cc(C(F)(F)F)c3)nn2)n1` [Compound 53] was run?
A: The IC50 was 7.33 nM.

Q: With `Cc1nsc(-c2ccc(N(C)CCCCOc3ccc([N+](=O)[O-])c(C(F)(F)F)c3)nn2)n1` [Compound 54] as the compound, how does the IC50 read?
A: Its IC50 is 13.7 nM.

Q: For `Cc1nsc(-c2ccc(N(C)CCCCOc3ccc(Br)cc3[N+](=O)[O-])nn2)n1` [Compound 56], which IC50 is on record?
A: Its IC50 is 80.7 nM.

Q: With `Cc1nsc(-c2ccc(N(C)CCCCOc3cccc([N+](=O)[O-])c3)nn2)n1` [Compound 57] as the compound, how does the IC50 read?
A: The IC50 was 51.1 nM.

Q: How did the IC50 turn out when `Cc1cccc(OCCCCN(C)c2ccc(-c3nc(C)ns3)nn2)c1` [Compound 61] was run?
A: The IC50 was 35.1 nM.

Q: For `Cc1ccc(C(C)C)c(OCCCCN(C)c2ccc(-c3nc(C)ns3)nn2)c1` [Compound 62], which IC50 is on record?
A: The IC50 was 5.53 nM.

Q: Which IC50 does the source give for `CCN(CCCCOc1cccc(C(F)(F)F)c1)c1ccc(-c2nc(C)ns2)nn1` [Compound 63] here?
A: The IC50 was 9.2 nM.

Q: `CN(C)c1nsc(-c2ccc(NCCCCOc3cccc(C(F)(F)F)c3)nn2)n1` [Compound 67] was tested. Which IC50 did it give?
A: The IC50 was 32.4 nM.

Q: `Cc1nsc(-c2ccc(N(C)CCCCC(=O)c3cccc(C(F)(F)F)c3)nn2)n1` [Compound 70] was tested. Which IC50 did it give?
A: The IC50 was 12.2 nM.

Q: `Cc1nsc(-c2ccc(NCCCCSc3ccc(F)cc3)nn2)n1` [Compound 71] was tested. Which IC50 did it give?
A: The IC50 was < 0.1 nM.

Q: How did the IC50 turn out when `Cc1nsc(-c2ccc(N(C)CCCCSc3ccc(F)cc3)nn2)n1` [Compound 72] was run?
A: The IC50 was 0.388 nM.

Q: For `Cc1nsc(-c2ccc(NCCCCSc3cccc(C(F)(F)F)c3)nn2)n1` [Compound 73], which IC50 is on record?
A: Its IC50 is 2.86 nM.

Q: For `Cc1nsc(-c2ccc(N(C)CCCCSc3cccc(C(F)(F)F)c3)nn2)n1` [Compound 74], which IC50 is on record?
A: Its IC50 is 1 nM.

Q: For `Cc1nsc(-c2ccc(N(C)CCCCCc3ccc(F)cc3)nn2)n1` [Compound 76], which IC50 is on record?
A: The IC50 was 1.15 nM.

Q: For `Cc1nsc(-c2ccc(NCCCCCc3cccc(C(F)(F)F)c3)nn2)n1` [Compound 77], which IC50 is on record?
A: Its IC50 is 5.81 nM.

Q: With `Cc1nsc(-c2ccc(N(C)CCCCCc3cccc(C(F)(F)F)c3)nn2)n1` [Compound 78] as the compound, how does the IC50 read?
A: Its IC50 is 0.28 nM.

Q: `CN(C)c1nsc(-c2ccc(NCCCCCCNc3cccc(C(F)(F)F)c3)nn2)n1` [Compound 97] was tested. Which IC50 did it give?
A: The IC50 was 1.6 nM.

Q: `FC(F)(F)c1cccc(OCCNc2ccc(-c3ncns3)nn2)c1` [Compound 98] was tested. Which IC50 did it give?
A: The IC50 was 3.07 nM.

Q: Which IC50 does the source give for `CN(C)c1nsc(-c2ccc(N(C)CCOc3cccc(C(F)(F)F)c3)nn2)n1` [Compound 100] here?
A: The IC50 was 7.01 nM.

Q: Which IC50 does the source give for `CN(CCCCOc1cccc(C(F)(F)F)c1)c1ccc(-c2nc(CO)ns2)nn1` [Compound 102] here?
A: The IC50 was 2.08 nM.

Q: How did the IC50 turn out when `Cc1nsc(-c2ccc(N(C)CCCNc3cccc(C(F)(F)F)c3)nn2)n1` [Compound 104] was run?
A: Its IC50 is 20.3 nM.

Q: With `Cc1nsc(-c2ccc(NCCN(C)c3cccc(C(F)(F)F)c3)nn2)n1` [Compound 105] as the compound, how does the IC50 read?
A: Its IC50 is 1.49 nM.

Q: With `Cc1nsc(-c2ccc(NCCCCNc3cccc(C(F)(F)F)c3)nn2)n1` [Compound 108] as the compound, how does the IC50 read?
A: The IC50 was 37.9 nM.

Q: For `Cc1nsc(-c2ccc(N(C)CCN(Cc3ccccc3)c3cccc(C(F)(F)F)c3)nn2)n1` [Compound 110], which IC50 is on record?
A: Its IC50 is 6.98 nM.

Q: How did the IC50 turn out when `Cc1nsc(-c2ccc(N(C)CCCCN(C)c3cccc(C(F)(F)F)c3)nn2)n1` [Compound 111] was run?
A: The IC50 was 1.87 nM.

Q: With `Cc1nsc(-c2ccc(N(C)CCNc3cccc(C(F)(F)F)c3)nn2)n1` [Compound 112] as the compound, how does the IC50 read?
A: Its IC50 is 13.3 nM.
